According to publication PMC12412044, “The Role of LVV‐H7 in Alcohol‐Induced Reward Mechanisms” (Addiction Biology, 2025):
Entries after “also recorded” stand apart in the source; their conditions may differ.

Legend:
[1] = Blood–brain barrier permeability of fluorescently labelled compounds, fluorescence microscopy of brain sections; format: in vivo, rat; conditions: pepstatin conjugated with carboxyfluorescein and LVV-H7 tagged with Dansyl, given i.p. to rats; brain tissue sections, fluorescence microscopy 10×
Protocol: (§1) LVV‐H7 was dissolved in 0.9% NaCl and administered intraperitoneally (i.p.) 15 min before experiments at doses of 0.5 and 1 mg/kg. Control groups received 0.9% NaCl injections in an equivalent volume and by the same route. Pepstatin (Sigma‐Aldrich) was dissolved in 0.9% NaCl and administered i.p. at 10 mg/kg. Ethanol (95% w/v, Polmos; Poznan, Poland) was diluted with 0.9% NaCl to a 15% w/v concentration. In the CPP procedure, ethanol at doses of 1 or 1.5 g/kg (15% w/v) was administered i.p. before each conditioning phase.
The fluorescent analogue of pepstatin was synthesized on the Tentagel S RAM resin. At first, the Fmoc‐Lys (Mtt)‐OH was introduced using COMU/DIPEA, according to the procedure described above. To remove the Mtt group, the dried resin was treated with the TFE/HFIP/TIS/DCM mixture: 1:2:0.5:6.5 (v/v). Labelling with 5(6)‐carboxyfluorescein was performed with 5(6)‐carboxyfluorescein/HOBt/DIC in a molar ratio of 1:1:1. […] The high‐resolution MS characterized the probe, and preparative HPLC assessed its purity.
We investigated the ability of synthesized LVV‐H7 and pepstatin to cross the blood–brain barrier (BBB). […] Brain tissue samples from treated rats were then analysed using fluorescence microscopy.
FIGURE 3 Rat brain sections under visible light and fluorescence microscopy 10×: (a) pepstatin labelled with carboxyfluorescein, (b) LVV‐H7 labelled with Dansyl.

[2] = tested on: μ‐opioid receptor (OPRM1); test: Western blot densitometry of OPRM1 expression in CNS structures after the CPP test; format: in vivo, rat; conditions: ethanol alone versus control
Protocol: (§2) Brain structures and spinal cords isolated from the animals were homogenized in 50 μL of the buffer consisting of 50 mM Tris/HCl, pH 7.6 and 150 mM NaCl in the presence of a proteinase inhibitor cocktail (Roche). Cells were homogenized thrice on ice by sonication (5 s each). The homogenate was centrifuged at 25 000g for 30 min at 4°C. The final protein concentration in the supernatant was determined using a Bradford assay kit (Sigma‐Aldrich).
(§3) One‐dimensional polyacrylamide gel electrophoresis was performed after standardizing the samples according to their total protein concentration. Thirty microlitres of the Laemmli sample buffer (Bio‐Rad, USA) were added to the subsequent volume of each sample, followed by incubation for 5 min at 90°C in a Thermomixer (Eppendorf). According to the Bio‐Rad protocol, proteins were separated on the 10% SDS‐PAGE.
(§4) Mini Protean system and electrotransferred onto the PVDF membrane (Bio‐Rad, USA). The adequate antibodies confirmed the presence of proteins (Biorbyt, UK). […]
(§5) Protein expression levels were measured using standard Western blotting. SDS‐PAGE was performed after standardizing protein extracts based on total protein concentration (determined via the Bradford method), immunotransfer, and immunodetection. Densitometric analysis was conducted to quantify protein levels in all structures from five animals. […]

male Wistar rats = test: Ethanol conditioned place preference (CPP) test; format: in vivo, rat
Protocol: All conducted experiments used male Wistar rats (Experimental Medicine Center, Lublin, Poland) weighing 220 ± 20 g. The animals were housed under standard laboratory conditions (22°C, 12:12‐h light–dark cycle; light on at 8:00 AM) in groups of four rats per cage. The animals were allowed 7 days for acclimation before experiments with access to standard food (Bacutil; Motycz, Poland) and water ad libitum. After 7 days of adaptation and handling, the animals were divided into groups of 7–8 and prepared for the tests. Behavioural experiments were carried out according to the National Institute of Health Guidelines for the Care and Use of Laboratory Animals and the European Community Council Directive for Care and Use of Laboratory Animals (86/609/EEC). The Local Ethics Committee approved them. Additionally, we confirm that ARRIVE guidelines report the study.
as §1
In our experiments, eight identical rectangular CPP boxes (60 cm × 35 cm × 30 cm), each one composed of three compartments: two large compartments (25 cm × 35 cm) and a smaller central grey compartment (10 cm × 10 cm), were used. In one of the compartments, the inside walls were white, and the floor held a large grid, whereas the walls of the other compartment were painted black, and the floor held a narrow grid. Illumination in the testing room was adjusted so that the environmental (visual and tactile) cues would not produce a significant baseline preference for a specific compartment. Both large compartments were separated from a central grey area by the removable guillotine doors, the opening of which provided access to the larger compartments. The apparatus was thoroughly cleaned between each test procedure and then wiped with dry paper towels to neutralize odour traces. […] The CPP performance was measured by computerized video tracking.
The CPP paradigm was carried out according to an unbiased procedure with minor modifications. […] The time spent in each compartment was measured during the pre‐test phase. […]
During the second phase (pre‐conditioning test), 24 h after the habituation session, rats were placed in the central grey square compartment of the CPP apparatus with free access to all compartments for 15 min. The time spent in each compartment was recorded with a computer programme. […]

DARPP‐32 = test: Western blot densitometry of DARPP‐32 expression in CNS structures after the CPP test; format: in vivo, rat; conditions: alcohol alone
Protocol: as §2, §3, §4, §5

NMDA receptor (NMDAR1) = test: Western blot densitometry of NMDA receptor expression in CNS structures after the CPP test; format: in vivo, rat; conditions: ethanol alone versus control
Protocol: as §2, §3, §4, §5

Row | Compound | enzyme involved in the production of fragment VV-H7 (proteins identified in active Fraction 29 of spinal cord homogenate, nanoLC-MALDI-MS/MS) | degradation products of LVV-H7 after incubation with homogenates (rat spinal cord homogenate, DEAE fractions, LVV-hemorphin 60 μg/mL, 10 μL in 40 μL, Tris–HCl pH 7.4, 37°C, 1 h, read-out mass spectrometry) | ability to cross the blood–brain barrier (BBB) [1] | OPRM1 expression following EtOH administration [2] | time spent in the drug-associated compartment on the CPP test day (male Wistar rats; ethanol 1.0 g/kg i.p., 10-day conditioning, versus 0.9% NaCl group) | time spent in the drug-paired compartment on the CPP test day (expression of ethanol-induced CPP) (male Wistar rats; ethanol 1.5 g/kg (15% w/v) i.p., 10-day conditioning, versus 0.9% NaCl group) | DARPP-32 expression after alcohol administration (DARPP‐32) | NMDA receptor expression following EtOH administration (NMDA receptor (NMDAR1)) | expression of ethanol-CPP after pepstatin pretreatment (male Wistar rats; pepstatin 10 mg/kg i.p. 5 min before each ethanol injection (1.5 g/kg, 15% w/v, i.p.) during 10-day conditioning, p < 0.001) | time spent in the drug-associated compartment, pepstatin given alone (male Wistar rats; pepstatin 10 mg/kg i.p. before each conditioning session, no ethanol, versus 0.9% NaCl)
1 | CC(C)C[C@H](N)C(=O)N[C@H](C(=O)N[C@H](C(=O)N[C@@H](Cc1ccc(O)cc1)C(=O)N1CCC[C@H]1C(=O)N[C@@H](Cc1c[nH]c2ccccc12)C(=O)N[C@H](C(=O)N[C@@H](CCC(N)=O)C(=O)N[C@@H](CCCNC(=N)N)C(=O)N[C@@H](Cc1ccccc1)C(=O)O)[C@@H](C)O)C(C)C)C(C)C [LVV‐H7, LVV‐hemorphin‐7] | puromycin‐sensitive aminopeptidase (PSA) | VVYPWTQRF, YPWTQRF, PWTQRF and LVVYPWTQR fragments were mainly revealed | successfully cross the BBB |  |  |  |  |  |  | 
2 | CCO [ethanol] |  |  |  | statistically significant upregulation | did not change the time spent; also recorded: did not evoke any rewarding effects | spent significantly more time | upregulation | statistically significant upregulation |  | 
3 | pepstatin |  |  | successfully cross the BBB |  |  |  |  |  | significantly blocked the expression of ethanol‐CPP | did not change the time spent
